# Test results as given in patent publication US11365201B2, “Chlorotonil derivatives” (HELMHOLTZ-ZENTRUM FÜR INFEKTIONSFORSCHUNG GMBH, priority 2017, dated 2022).
# Tests used:
# [1] = test system: Plasmodium falciparum; conditions: cited from earlier work
# [2] = test system: P. falciparum 3D7 (sensitive strain); assay: Antiplasmodial in vitro drug sensitivity assay (HRP2-ELISA); type: cell-based; conditions: Plasmodium falciparum, 3D7, read-out: IC50 against P. falciparum 3D7
# Experimental: (§1) Two laboratory strains of P. falciparum, the chloroquine sensitive 3D7 and the multi-resistant Dd2 were kept in continuous culture as previously described (Trager and Jensen 1976). In brief, parasites were kept in complete culture medium (RPMI 1640, 25 mM HEPES, 2 mM L-glutamine, 50 μg/ml gentamicin and 0.5% w/v AlbuMAX) at 37° C., 5% CO2 and 5% oxygen at 5% hematocrit with daily change of medium. Synchronization was performed with sorbitol twice a week (Lambros and Vanderberg 1979).
# (§2) In Vitro Drug Sensitivity Assay
# (§3) All compounds were dissolved in DMSO at stock dilutions between 25 and 100 mM; the reference drug chloroquine diphosphate (MW: 515.86) was diluted in distilled water and DMSO, respectively. […] Antiplasmodial activity of the different compounds was tested in a drug sensitivity assay against the two laboratory strains using the histidine-rich protein 2 (HRP2) assay as described previously (Noedl 2005). In brief: 96 well plates were pre-coated with the different compounds in a threefold dilution before ring stage parasites were added in complete culture medium at a hematocrit of 1.5% and a parasitemia of 0.05% in a total volume of 225 μl per well. After three days of incubation plates were frozen until analyzed by HRP2-ELISA. All compounds were evaluated in duplicate in at least two independent experiments.
# [3] = test system: P. falciparum Dd2 (resistant strain); assay: as above; type: cell-based; conditions: Plasmodium falciparum, DD2, read-out: IC50 against P. falciparum Dd2
# Experimental: as §1, §2, §3
# [4] = test system: chloroquine-sensitive laboratory strains of Plasmodium falciparum; conditions: read-out: mean IC50, chloroquine-sensitive laboratory strains of Plasmodium falciparum; in vitro, first screening; cited from earlier work
# [5] = Determination of water solubility, Method 2 (HPLC-MS standard curve, saturated solution in water); type: physicochemical; conditions: thermodynamic from solid; saturated solution in water, HPLC-MS standard curve
# Experimental: (§4) Determination of Water Solubility
# A standard curve with 10 calibration points of the compound of interest is plotted using HPLC-MS and serial dilution. The dilutions and stock solutions were prepared in THF as a solvent. Following the measurements, a saturated solution in water of the compound in study was also measured. Upon plotting the standard curve using the peak areas of the MS peaks, the water samples were plotted along the curve and the solubility was then calculated.
# [6] = test system: clinical isolates from Gabon; conditions: read-out: median IC50, clinical isolates from Gabon; in vitro; cited from earlier work
# [7] = Determination of water solubility, Method 1 (suspension in tap water, weighing); type: physicochemical; conditions: thermodynamic from solid, room temperature, 18 h stirring, triplicates
# Experimental: as §4
# 10 mg of compound was suspended in 1 L of tap water and the solution was stirred at room temperature for 18 h. Upon completion, solution was sonicated for another hour, centrifuged and the supernatant was separated from the precipitate. Both aliquots were lyophilized, and weighed. This procedure was performed in triplicates.
# [8] = test system: mature stage (stage IV-V) gametocytes; conditions: read-out: mean IC50, gametocytocidal activity, ATP bioluminescence; cited from earlier work
# [9] = mice; cited from earlier work
# [10] = test system: chloroquine-resistant laboratory strains of Plasmodium falciparum; conditions: read-out: mean IC50, chloroquine-resistant laboratory strains of Plasmodium falciparum; in vitro, first screening; cited from earlier work
# [11] = test system: L-929 (murine fibroblasts); assay: Cytotoxicity assay (MTT, 5 d); type: cell-based; conditions: Mus musculus, L929, 120 h
# Experimental: Cytotoxicity Assay The murine fibroblast cell line L-929 was obtained from the German Collection of Microorganisms and Cell Cultures (DSMZ) and maintained under conditions recommended by the depositor. Cells were seeded at 6×10^3 cells per well of sterile 96-well plates in 180 μL complete medium and treated with the compounds in serial dilution after 2 h of equilibration. After 5 d, viability was assessed by the MTT method. After 1.5 h incubation with 0.5 mg/mL MTT reagent, cells were washed with PBS and 100 μL of 2-propanol/10 N HCl (250:1) was added. The absorbance at 570 nm was determined on a microplate reader and cell viability was expressed as percentage relative to the respective solvent control. Half-inhibitory concentrations (IC50) were determined by sigmoidal curve fitting.
# [12] = test system: E. coli TolC (+PMBN); assay: Antimicrobial assay, MIC by microbroth dilution with PMBN; type: cell-based; conditions: 16 h, 3 μg/mL polymyxin B nonapeptide (PMBN) added
# Experimental: Bacterial strains used in susceptibility assays (minimum inhibitory concentrations, MIC) were either part of our internal strain collection or were purchased form the German Collection of Microorganisms and Cell Cultures (DSMZ). All compounds were prepared as DMSO stocks and MIC values were determined in standard microbroth dilution assays. Overnight cultures of bacteria were diluted in cation-adjusted Muller-Hinton broth (BBL™, BD) and were adjusted to approximately 10^5 cfu/mL. For the E. coli culture, 3 μg/mL of polymyxin B nonapeptide (PMBN) was added to increase permeability of the outer membrane as chlorotonils were previously shown to not penetrate into Gram-negative cells. Bacteria were grown in the presence of the derivatives in serial dilution for 16 h at their optimal growth temperature. MIC values were determined according to CLSI guidelines (antibiotic concentration at which no visible bacterial growth is observed).
smiles,measurement,setting,value
"CC1=C[C@@H](C)C2C3C(=O)C(Cl)(Cl)C(=O)[C@H](C)C(=O)O[C@@H](C)/C=C/C=C\[C@@H](C)[C@@H]3C=C[C@@H]2C1 (stereo partly drawn) [Chlorotonil A (ChA), Chlorotonil A]",Development of resistant parasites in vitro by drug pressure,[1],not possible to develop resistant parasites in vitro by drug pressure
same,IC50,[2],18.7 nM
same,IC50,[3],20.7 nM
same,IC50,[4],9 nM
same,solubility,[5],1.8 µg/mL
same,IC50,[6],15.2 nM
same,solubility at 18 h,[7],3 µg/mL
same,IC50,[8],29.6 nM
same,oral availability,[9],orally available
same,IC50,[10],18 nM
same,IC50,[11],1100 nM
same,MIC E. coli TolC (+PMBN),[12],0.4 µg/mL
